# Assay results from PubChem BioAssay AID1963829 (Molecular Pharmacology Branch, DTP, NCI, 2024).
# Tested on: 935938-334-R-J1-PDC complex spheroid viability
# Assay: Anticancer human tumor 935938-334-R-J1-PDC patient-derived small intestine adenocarcinoma cell line growth inhibition [POLQ]
# Conditions: for IC50: curve of first compound; for viability, T/C: stronger effect = lower value
# In short: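 Complex spheroid viability model combining PDC tumour cells with endothelial (HUVEC) and MSC stromal cells. Novobiocin, ART-558 or RP6685 were tested singly and in combination with standard and investigational anticancer drugs. Each was titrated in half-log steps from near clinical Cmax, or from 10 microM where Cmax was unknown.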
# [1] = second compound 0.0316 µM, first compound 0.0316 µM
# [2] = second compound 0.0316 µM, first compound 0.1 µM
# [3] = second compound 0.0316 µM, first compound 0.316 µM
# [4] = second compound 0.0316 µM, first compound 1 µM
# [5] = second compound 0.0316 µM, first compound 3.16 µM
# [6] = second compound 0.0316 µM, first compound 10 µM
# [7] = second compound 0.1 µM, first compound 0.0316 µM
# [8] = second compound 0.1 µM, first compound 0.1 µM
# [9] = second compound 0.1 µM, first compound 0.316 µM
# [10] = second compound 0.1 µM, first compound 1 µM
# [11] = second compound 0.1 µM, first compound 3.16 µM
# [12] = second compound 0.1 µM, first compound 10 µM
# [13] = second compound 0.316 µM, first compound 0.0316 µM
# [14] = second compound 0.316 µM, first compound 0.1 µM
# [15] = second compound 0.316 µM, first compound 0.316 µM
# [16] = second compound 0.316 µM, first compound 1 µM
# [17] = second compound 0.316 µM, first compound 3.16 µM
# [18] = second compound 0.316 µM, first compound 10 µM
# [19] = second compound 1 µM, first compound 0.0316 µM
# [20] = second compound 1 µM, first compound 0.1 µM
# [21] = second compound 1 µM, first compound 0.316 µM
# [22] = second compound 1 µM, first compound 1 µM
# [23] = second compound 1 µM, first compound 3.16 µM
# [24] = second compound 1 µM, first compound 10 µM
# [25] = second compound 3.16 µM, first compound 0.0316 µM
# [26] = second compound 3.16 µM, first compound 0.1 µM
# [27] = second compound 3.16 µM, first compound 0.316 µM
# [28] = second compound 3.16 µM, first compound 1 µM
# [29] = second compound 3.16 µM, first compound 3.16 µM
# [30] = second compound 3.16 µM, first compound 10 µM
# [31] = second compound 10 µM, first compound 0.0316 µM
# [32] = second compound 10 µM, first compound 0.1 µM
# [33] = second compound 10 µM, first compound 0.316 µM
# [34] = second compound 10 µM, first compound 1 µM
# [35] = second compound 10 µM, first compound 3.16 µM
# [36] = second compound 10 µM, first compound 10 µM
# 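Note: spheroids exposed to drugs for seven days before viability read.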
# 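Throughout, for viability, T/C: 100% = DMSO vehicle control wells.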
smiles,measurement,setting,value
CCCS(=O)(=O)Nc1ccc(F)c(C(=O)c2c[nH]c3ncc(-c4ccc(Cl)cc4)cc23)c1F + COC1C(OC(N)=O)C(O)C(Oc2ccc3c(O)c(NC(=O)c4ccc(O)c(CC=C(C)C)c4)c(=O)oc3c2C)OC1(C)C,IC50,second compound 0.0316 µM,9.13 µM
same,IC50,second compound 0.1 µM,8.46 µM
same,IC50,second compound 0.316 µM,9.27 µM
same,IC50,second compound 1 µM,8.52 µM
same,IC50,second compound 3.16 µM,9.73 µM
same,IC50,second compound 10 µM,9.94 µM
same,"viability, T/C",[1],96.1%
same,"viability, T/C",[2],142%
same,"viability, T/C",[3],118%
same,"viability, T/C",[4],111%
same,"viability, T/C",[5],101%
same,"viability, T/C",[6],45.4%
same,"viability, T/C",[7],113%
same,"viability, T/C",[8],80.5%
same,"viability, T/C",[9],103%
same,"viability, T/C",[10],110%
same,"viability, T/C",[11],134%
same,"viability, T/C",[12],40.2%
same,"viability, T/C",[13],73.6%
same,"viability, T/C",[14],98.8%
same,"viability, T/C",[15],119%
same,"viability, T/C",[16],121%
same,"viability, T/C",[17],125%
same,"viability, T/C",[18],45.9%
same,"viability, T/C",[19],116%
same,"viability, T/C",[20],117%
same,"viability, T/C",[21],101%
same,"viability, T/C",[22],131%
same,"viability, T/C",[23],111%
same,"viability, T/C",[24],40.1%
same,"viability, T/C",[25],114%
same,"viability, T/C",[26],107%
same,"viability, T/C",[27],120%
same,"viability, T/C",[28],147%
same,"viability, T/C",[29],111%
same,"viability, T/C",[30],48.7%
same,"viability, T/C",[31],104%
same,"viability, T/C",[32],97.6%
same,"viability, T/C",[33],130%
same,"viability, T/C",[34],129%
same,"viability, T/C",[35],127%
same,"viability, T/C",[36],49.6%
CC1COCCN1c1cc(C2(S(C)(=N)=O)CC2)nc(-c2ccnc3[nH]ccc23)n1 (centres undefined) + COC1C(OC(N)=O)C(O)C(Oc2ccc3c(O)c(NC(=O)c4ccc(O)c(CC=C(C)C)c4)c(=O)oc3c2C)OC1(C)C,IC50,second compound 0.0316 µM,2.74 µM
same,IC50,second compound 0.1 µM,2.13 µM
same,IC50,second compound 0.316 µM,2.22 µM
same,IC50,second compound 1 µM,3.88 µM
same,IC50,second compound 3.16 µM,2.44 µM
same,IC50,second compound 10 µM,2.13 µM
same,"viability, T/C",[1],111%
same,"viability, T/C",[2],85.8%
same,"viability, T/C",[3],85.7%
same,"viability, T/C",[4],59.5%
same,"viability, T/C",[5],58.6%
same,"viability, T/C",[6],23.1%
same,"viability, T/C",[7],122%
same,"viability, T/C",[8],102%
same,"viability, T/C",[9],82.3%
same,"viability, T/C",[10],67.8%
same,"viability, T/C",[11],43.1%
same,"viability, T/C",[12],17.7%
same,"viability, T/C",[13],104%
same,"viability, T/C",[14],69%
same,"viability, T/C",[15],81.9%
same,"viability, T/C",[16],73%
same,"viability, T/C",[17],38.4%
same,"viability, T/C",[18],17.3%
same,"viability, T/C",[19],96.1%
same,"viability, T/C",[20],80.3%
same,"viability, T/C",[21],84.8%
same,"viability, T/C",[22],64.8%
same,"viability, T/C",[23],65.8%
same,"viability, T/C",[24],14.9%
same,"viability, T/C",[25],86.2%
same,"viability, T/C",[26],87.8%
same,"viability, T/C",[27],90.2%
same,"viability, T/C",[28],68.4%
same,"viability, T/C",[29],45.1%
same,"viability, T/C",[30],16.3%
same,"viability, T/C",[31],105%
same,"viability, T/C",[32],82.5%
same,"viability, T/C",[33],95.2%
same,"viability, T/C",[34],58.1%
same,"viability, T/C",[35],44.3%
same,"viability, T/C",[36],17.3%
